Test results as given in paper PMC9127750, “Structure-based design of CDC42 effector interaction inhibitors for the treatment of cancer” (Cell reports, 2022).
Several values for one entry are separate records, joined by “and”; a condition that tells them apart may be missing. Identical values can stand only once.

Test system: WM3248 melanoma cells, 486 antibodies
Assay: Reverse phase protein arrays (RPPA)
Format: cell-based, Human
From the text: Pellets were snap frozen in liquid nitrogen and shipped to MD Anderson Cancer Center core RPPA facility for RPPA analysis (Table S5). Three biological replicates for each sample were generated.
Nomenclatures on the RPPA heatmaps: name_of_antibody.species_of_antibody.status_of_antibody. V - antibody validated; C - validation of antibody in progress; Q - antibody nonspecific; E – under evaluation; antibodies raised in M - mouse, G - goat, R - rabbit, or T - rat.

SMILES: CN(C)c1cccc(Nc2cc(-c3ccccc3)nc(C3CCNCC3)n2)c1 [ARN22089, N1,N1-dimethyl-N3-(6-phenyl-2-(piperidin-4-yl)pyrimidin-4-yl)benzene-1,3-diamine]
- RPPA EGFR_pY1068.R.C (5 uM, single samples): 1.000 and 0.953 and 1.026
- RPPA EGFR_pY1173.R.V (5 uM, single samples): 0.975 and 1.083 and 1.079
- RPPA EMA.M.C (5 uM, single samples): 1.076 and 0.967 and 1.014
- RPPA ENY2.M.C (5 uM, single samples): 0.948 and 0.847
- RPPA ER.a.R.V (5 uM, single samples): 0.800 and 1.157 and 1.137
- RPPA ER.a_pS118.R.V (5 uM, single samples): 0.923 and 1.516 and 1.141
- RPPA ERCC1.R.C (5 uM, single samples): 1.055 and 0.895 and 0.971
- RPPA ERCC5.R.C (5 uM, single samples): 1.027 and 0.974 and 0.973
- RPPA ERRalpha.R.V (5 uM, single samples): 1.078 and 0.970 and 0.952
- RPPA EVI1.R.V (5 uM, single samples): 0.942 and 0.941
- RPPA Elk1_pS383.R.C (5 uM, single samples): 0.946 and 1.013 and 1.129
- RPPA Enolase.1.R.V (5 uM, single samples): 1.024 and 0.893 and 0.818
- RPPA Enolase.2.R.V (5 uM, single samples): 0.995 and 0.946
- RPPA EphA2.R.V (5 uM, single samples): 0.776 and 1.046
- RPPA EphA2_pS897.R.C (5 uM, single samples): 0.644 and 1.190 and 1.055
- RPPA EphA2_pY588.R.C (5 uM, single samples): 0.942 and 0.920
- RPPA Erk5.R.V (5 uM, single samples): 1.097 and 1.135
- RPPA Ets.1.R.V (5 uM, single samples): 1.185 and 0.950 and 0.594
- RPPA FAK.R.C (5 uM, single samples): 0.858 and 1.217 and 0.941
- RPPA FAK_pY397.R.V (5 uM, single samples): 1.026 and 0.959 and 1.059
- RPPA FANCD2.R.V (5 uM, single samples): 0.883 and 1.063
- RPPA FASN.R.V (5 uM, single samples): 1.017 and 0.767
- RPPA FGF.basic.R.C (5 uM, single samples): 0.868 and 1.191
- RPPA FN14.R.C (5 uM, single samples): 0.857 and 1.226 and 1.168
- RPPA FOXM1.R.V (5 uM, single samples): 0.885
- RPPA FOXO3.R.V (5 uM, single samples): 0.861 and 0.945 and 1.100
- RPPA FRS2.alpha_pY196.R.V (5 uM, single samples): 0.930 and 0.961 and 0.957
- RPPA FTO.R.V (5 uM, single samples): 1.124 and 0.945 and 0.752
- RPPA FoxO3a_pS318_S321.R.C (5 uM, single samples): 0.918 and 0.939
- RPPA G6PD.R.V (5 uM, single samples): 0.943 and 0.965
- RPPA GATA3.M.V (5 uM, single samples): 0.797 and 0.715
- RPPA GATA6.R.V (5 uM, single samples): 0.919 and 1.005
- RPPA GCLC.R.C (5 uM, single samples): 1.024 and 1.110 and 0.894
- RPPA GCLM.R.V (5 uM, single samples): 0.926 and 0.954
- RPPA GCN5L2.R.V (5 uM, single samples): 0.871 and 1.148
- RPPA GGPS1.M.V (5 uM, single samples): 0.934 and 0.780
- RPPA GRB2.R.V (5 uM, single samples): 0.928 and 1.049 and 1.170
- RPPA GRB7.R.V (5 uM, single samples): 0.960 and 1.157 and 0.957
- RPPA GSK.3B.R.C (5 uM, single samples): 1.001 and 1.019
- RPPA GSK.3a.b.M.V (5 uM, single samples): 0.936 and 0.817
- RPPA GSK.3a.b_pS21_S9.R.V (5 uM, single samples): 0.866 and 1.380 and 0.704
- RPPA Gab2.R.V (5 uM, single samples): 1.251 and 0.896 and 0.910
- RPPA Gli1.R.C (5 uM, single samples): 1.000 and 0.967
- RPPA Gli3.R.C (5 uM, single samples): 0.979 and 1.003 and 0.745
- RPPA Glucocorticoid.Receptor.R.V (5 uM, single samples): 1.035 and 1.000 and 1.021
- RPPA Glutamate.D1.2.R.V (5 uM, single samples): 0.976 and 0.943 and 0.801
- RPPA Glutaminase.R.C (5 uM, single samples): 0.948 and 1.063 and 0.715
- RPPA Granzyme.B.R.V (5 uM, single samples): 0.964 and 1.146
- RPPA Grp75.R.C (5 uM, single samples): 0.944 and 0.963
- RPPA Gys.R.V (5 uM, single samples): 0.967 and 1.080
- RPPA Gys_pS641.R.V (5 uM, single samples): 0.994 and 1.246 and 0.822
- RPPA H2AX_pS139.R.C (5 uM, single samples): 0.914 and 1.103
- RPPA H2AX_pS140.M.C (5 uM, single samples): 1.104 and 0.895 and 0.770
- RPPA HER2.M.V (5 uM, single samples): 0.948 and 0.899
- RPPA HER2_pY1248.R.V (5 uM, single samples): 0.827 and 1.156
- RPPA HER3.R.V (5 uM, single samples): 0.886 and 0.834
- RPPA HER3_pY1289.R.C (5 uM, single samples): 0.992 and 0.888
- RPPA HES1.R.V (5 uM, single samples): 1.367 and 1.154
- RPPA Heregulin.R.V (5 uM, single samples): 0.832 and 1.116 and 1.160
- RPPA eEF2K.R.V (5 uM, single samples): 0.918 and 0.788
- RPPA eIF4E.R.V (5 uM, single samples): 0.941 and 1.515 and 0.898
- RPPA eIF4E_pS209.R.V (5 uM, single samples): 0.935 and 1.281 and 0.858
- RPPA eIF4G.R.C (5 uM, single samples): 1.030 and 0.956 and 1.155
- RPPA MYH11.R.C Average (10 uM): 1.243
- RPPA Myosin.IIa.R.C Average (10 uM): 0.941
- RPPA Myosin.IIa_pS1943.R.V Average (10 uM): 1.022
- RPPA Myt1.R.C Average (10 uM): 0.989
- RPPA N.Cadherin.R.V Average (10 uM): 1.064
- RPPA N.Ras.M.V Average (10 uM): 0.991
- RPPA NDRG1_pT346.R.V Average (10 uM): 1.015
- RPPA NDUFB4.R.V Average (10 uM): 1.035
- RPPA NRF2.R.C Average (10 uM): 0.996
- RPPA Notch1.R.V Average (10 uM): 1.064
- RPPA Notch1.cleaved.R.V Average (10 uM): 0.926
- RPPA Notch3.R.C Average (10 uM): 1.098
- RPPA Oct.4.R.C Average (10 uM): 1.008
- RPPA P.Cadherin.R.C Average (10 uM): 0.973
- RPPA PAI.1.M.V Average (10 uM): 1.014
- RPPA PAICS.R.C Average (10 uM): 0.920
- RPPA PAK1.R.V Average (10 uM): 0.961
- RPPA PAK4.R.V Average (10 uM): 1.063
